Measured values from the NIST ThermoML archive (doi:10.1016/j.fluid.2013.09.051).

Assay: xn = mol fraction of the nth substance listed
Conditions: Liquid, Time-dependent Raman spectra, x1 = 0

C [methane] + O
binary diffusion coefficient (273 K, 20000 kPa): 7.02e-10 m2/s
binary diffusion coefficient (298 K, 5000 kPa): 1.61e-09 m2/s
binary diffusion coefficient (298 K, 10000 kPa): 1.63e-09 m2/s
binary diffusion coefficient (298 K, 20000 kPa): 1.64e-09 m2/s
binary diffusion coefficient (298 K, 30000 kPa): 1.6e-09 m2/s
binary diffusion coefficient (298 K, 40000 kPa): 1.62e-09 m2/s
binary diffusion coefficient (313 K, 20000 kPa): 2.39e-09 m2/s
binary diffusion coefficient (353 K, 5000 kPa): 4.85e-09 m2/s
binary diffusion coefficient (353 K, 10000 kPa): 5e-09 m2/s
binary diffusion coefficient (353 K, 20000 kPa): 4.98e-09 m2/s
binary diffusion coefficient (353 K, 30000 kPa): 4.79e-09 m2/s
binary diffusion coefficient (353 K, 40000 kPa): 4.8e-09 m2/s
binary diffusion coefficient (393 K, 5000 kPa): 8.59e-09 m2/s
binary diffusion coefficient (393 K, 10000 kPa): 8.7e-09 m2/s
binary diffusion coefficient (393 K, 20000 kPa): 8.68e-09 m2/s
binary diffusion coefficient (393 K, 30000 kPa): 8.45e-09 m2/s
binary diffusion coefficient (393 K, 40000 kPa): 8.08e-09 m2/s
binary diffusion coefficient (433 K, 20000 kPa): 1.25e-08 m2/s
binary diffusion coefficient (473 K, 20000 kPa): 1.71e-08 m2/s
